The values below come from patent US20080318842A1, “Cyclic Isodityrosine Derivatives” (priority 2004, published 2008).

Experiment [1] relates to mouse peritoneal macrophages. Description: Inhibition of production of cholesteryl ester from [14C] oleic acid in mouse peritoneal macrophages. The note with it: for IC50: Peritoneal macrophage. Type of experiment: cell-based. As for the experimental part: Production of a cholesteryl ester in mouse peritoneal macrophages was performed by partly modifying the method by Nishikawa et al (Nishikawa et al., the Journal of Biological Chemistry (JBC) 265, pp. 5226-5231, 1990). Mouse peritoneal macrophages were prepared from an ICR female mouse as follows. First, cells were isolated from the mouse peritoneal cavity using a Hank's balanced salt solution (HBSS) and then suspended in a GIT medium so as to have a concentration of 2×10^6 cells/mL. Subsequently, 0.25 mL of the suspension was placed in each of 48 wells on a plastic culture plate, and the plate was cultured in the presence of 5% CO2 at 37° C. for two hours. In order to remove non-adhesive cells, each well was then washed with 0.25 mL of an HBSS three times. Finally, 0.25 mL of a culture medium A (Dulbecco's modified Eagle's medium (DMEM) containing 100 u/mL of penicillin, 100 μg/mL of streptomycin, and an 8% lipoprotein-free serum) was added thereto.
The effect of inhibiting the synthesis of a cholesteryl ester of the agents (eurypamides A, A′, B, and D, and Compounds (1) to (12)) in the macrophages thus prepared was evaluated as follows: The amount of [^14C] cholesteryl ester and [^14C] triacylglycerol synthesized from [^14C] oleic acid was measured as follows, and a concentration of the agent at which the synthesis was inhibited by 50% (IC50: μg/mL) was determined.
First, the macrophages (5×10^5 cells/0.25 mL/well) were cultured in a plastic culture plate with 48 wells. Subsequently, 5 μL of [^14C] oleic acid (1 nmol, 0.05 μCi, which was dissolved in a phosphate buffered saline (PBS) containing 10% ethanol), liposome (having a composition of phosphatidylcholine/phosphatidylserine/diacetylphosphate/cholesterol=10/10/2/5 (nmol) in 10 μL of 0.3 M glucose), and 2.5 μL of each agent dissolved in methanol were added to each well. The plate was cultured for 14 hours, and the culture medium was then removed. Each of the wells was washed with a PBS three times. Subsequently, 0.25 mL of a PBS containing 0.1% (w/v) sodium dodecyl sulfate (SDS) was added to each well to lyse the cells. Lipid in the cells was extracted by the method by Bligh & Dyer (Bligh & Dyer, Can. J. Biochem. Physiol., 37, pp. 911-917, 1959). The volume of the organic solvent was reduced by centrifugation in vacuum. The solution was spotted on a thin-layer chromatography (TLC) plate (silica gel […], thickness: 0.5 mm, manufactured by Merck Ltd.) and developed with hexane/diethyl ether/acetic acid (70/30/1, v/v). The amounts of separated [^14C] cholesteryl oleate and [^14C] triacylglycerol were analyzed with a bioimage analyzer (BAS2000 manufactured by FUJIFILM Corporation).

In experiment [2] the test system is MRSA K24 strain. Description: Imipenem activity-potentiating effect, paper-disc method on plate containing imipenem. Type of experiment: cell-based, methicillin-resistant Staphylococcus aureus. The following applies: for MRSA (mm) [10 μg/6 mm disc]: diameter of inhibition circle, 10 μg agent per 6 mm paper disc, plate with imipenem 10 μg/mL, 37° C., 20 hours. How it is done: In this example, clinically isolated MRSA K24 strain was used as an assay strain. A plate for control was prepared by adding 1.5% of agar (manufactured by Shimizu Shokuhin Kaisha, Ltd.) to Mueller-Hinton Broth (manufactured by DIFCO Laboratories), and a plate for assay was prepared by adding imipenem (trade name: Tienam for intramuscular injection, titer: 0.5, manufactured by Banyu Pharmaceutical Co., Ltd.) to the above composition so that the final concentration of imipenem was 10 μg/mL. These plates were used as assay plates. An inoculum solution was prepared by culturing the assay strain in Mueller-Hinton Broth for one night, and diluting the culture solution with the same culture medium so as to have a concentration of 0.5 McFarland units (about 10^8 cfu/mL). This inoculum solution was applied on each of the plates with a sterile cotton swab in accordance with the National Committee For Clinical Laboratory Standards (NCCLS) method. The antibacterial activities against the assay strain in the plates were evaluated by a paper-disc method as follows. Paper discs with a diameter of 6 mm impregnated with 10 μg of assay medical agents (eurypamides A, A′, B, and D, and Compounds (1) to (12)) were placed on each of the plates, and the plates were cultured at 37° C. for 20 hours.
On the plate for control, the assay strain was grown under the paper discs. […] In addition, the assay strain could be grown on the plate for assay. […] If the compound impregnated in the paper disc acts in combination with imipenem to exert anti-MRSA activity, growth of the assay strain would not be observed under and around the paper disc. Therefore, in this example, the imipenem activity-potentiating effect for MRSA is represented by a diameter of an inhibition circle (the diameter passing through the center of the paper disc) on the assay plates.

[3] abbreviates: Mus musculus, 14 h, read-out: Macrophage [IC50 μg/mL].
Setting [4] is: Mus musculus, read-out: IC50 of inhibiting the production of cholesteryl oleate.
The mark [5] stands for this setting: Mus musculus, synthesis of [14C] cholesteryl ester from [14C] oleic acid, 14 hours culture, read-out: Macrophage [IC50 μg/mL].
[6] abbreviates: mouse peritoneal macrophages, read-out: IC50 of inhibiting the production of cholesteryl oleate.
The mark [7] stands for this setting: synthesis of [14C] cholesteryl ester from [14C] oleic acid, 14 hours culture.

In brackets after ≈: the same amount, converted by molar mass. Read-outs that look alike come from different tables or passages of the source. A value given as a limit tells only on which side of the number the result lay.

For the compound `COC(=O)C1Cc2cc(Br)c(c(Br)c2)Oc2cc(cc(I)c2O)C[C@H](NC(=O)OCc2ccccc2)C(=O)N[C@@H]([C@H](C)OCc2ccccc2)C(=O)N1` (some centres unmarked) [Compound (1), N-Cbz-Thr(O-benzyl)-dibromo-iodo-eurypamide B methyl ester], the IC50 in experiment [1] (setting [3]) and in experiment [1] (setting [4]) was 3 µg/mL (≈ 3.11 µM) throughout. Besides, the “effect of inhibiting the synthesis of a cholesteryl ester in macrophages, in words” value (“effect of inhibiting the synthesis … in words” for short) in experiment [1] is recorded as “have an effect of inhibiting the synthesis of a cholesteryl ester in macrophages”. Besides, in experiment [2], the “MRSA (mm) [10 μg/6 mm disc]” value turned out to be 8 mm. Further, in experiment [2], the “imipenem activity-potentiating effect (anti-MRSA activity in combination with imipenem), in words” value (“imipenem activity-potentiating effect” below) is given as “potentiate”.
As to `COC(=O)C1Cc2cc(Br)c(c(Br)c2)Oc2cc(cc(I)c2O)C[C@H](NC(=O)OC(C)(C)C)C(=O)N[C@@H]([C@H](C)OCc2ccccc2)C(=O)N1` (some centres unmarked) [Compound (2), N-Boc-Thr(O-benzyl)-dibromo-iodo-eurypamide B methyl ester], the IC50 in experiment [1] (setting [3]) and in experiment [1] (setting [4]) was 3 µg/mL (≈ 3.22 µM) each time. The “effect of inhibiting the synthesis … in words” value in experiment [1] is “have an effect of inhibiting the synthesis of a cholesteryl ester in macrophages”. Besides, the “MRSA (mm) [10 μg/6 mm disc]” value in experiment [2] is given as 8 mm. Moreover, the “imipenem activity-potentiating effect” value in experiment [2] is recorded as “potentiate”.
Consider `C[C@@H](O)[C@@H]1NC(=O)[C@@H](NC(=O)OC(C)(C)C)Cc2cc(I)c(O)c(c2)Oc2c(Br)cc(cc2Br)CC(C(=O)O)NC1=O` (some centres unmarked) [Compound (3), N-Boc-dibromo-iodo-eurypamide B], for which the IC50 in experiment [1] (setting [3]) is > 10 µg/mL. In addition, in experiment [2], the “MRSA (mm) [10 μg/6 mm disc]” value turned out to be 10 mm and the “imipenem activity-potentiating effect” value was “potentiate”.
For the compound `COC(=O)C1Cc2cc(Br)c(c(Br)c2)Oc2cc(cc(I)c2O)C[C@H](N)C(=O)N[C@@H]([C@@H](C)O)C(=O)N1` (some centres unmarked) [Compound (4), dibromo-iodo-eurypamide B methyl ester], the IC50 in experiment [1] (setting [5]) is > 10 µg/mL. Also, in experiment [2], the “MRSA (mm) [10 μg/6 mm disc]” value is 8 mm and the “imipenem activity-potentiating effect” value is on record as “potentiate”.
With `COC(=O)[C@@H]1Cc2cc(Br)c(c(Br)c2)Oc2cc(cc(I)c2O)C[C@H](N)C(=O)N[C@@H](C(C)OCc2ccccc2)C(=O)N1` (some centres unmarked) [Compound (5), Thr(O-benzyl)-dibromo-iodo-eurypamide B methyl ester], in experiment [1] (setting [5]), the IC50 was > 10 µg/mL. Moreover, in experiment [2], the “MRSA (mm) [10 μg/6 mm disc]” value was found to be 8 mm and the “imipenem activity-potentiating effect” value was “potentiate”.
`COC(=O)[C@@H]1Cc2cc(Br)c(c(Br)c2)Oc2cc(cc(I)c2O)C[C@H](NC(=O)OCC2c3ccccc3-c3ccccc32)C(=O)N[C@@H](C(C)OCc2ccccc2)C(=O)N1` (some centres unmarked) [Compound (6)]: the IC50 in experiment [1] (setting [5]) and in experiment [1] (setting [6]) was 0.32 µg/mL (≈ 0.304 µM) throughout. For the same compound, the “effect of inhibiting the synthesis … in words” value in experiment [1] is on record as “have an effect of inhibiting the synthesis of a cholesteryl ester in macrophages”. Further, the “imipenem activity-potentiating effect” value in experiment [2] is “do not potentiate”.
Turning to `COC(=O)[C@@H]1Cc2cc(Br)c(c(Br)c2)Oc2cc(cc(I)c2O)C[C@H](NC(=O)CCCCCNC(=O)OC(C)(C)C)C(=O)N[C@@H](C(C)OCc2ccccc2)C(=O)N1` (some centres unmarked) [Compound (7)], the IC50 in experiment [1] (setting [5]) and in experiment [1] (setting [6]) was 4.2 µg/mL (≈ 4.02 µM) in each case. The “effect of inhibiting the synthesis … in words” value in experiment [1] is “have an effect of inhibiting the synthesis of a cholesteryl ester in macrophages”. In addition, the “imipenem activity-potentiating effect” value in experiment [2] is on record as “do not potentiate”.
`COC(=O)[C@@H]1Cc2cc(Br)c(c(Br)c2)Oc2cc(cc(I)c2O)C[C@H](NC(=O)C(Cc2ccccc2)NC(=O)OC(C)(C)C)C(=O)N[C@@H](C(C)OCc2ccccc2)C(=O)N1` (some centres unmarked) [Compound (8)]: the IC50 in experiment [1] (setting [5]) and in experiment [1] (setting [6]) was 5 µg/mL (≈ 4.64 µM) throughout. For the same compound, the “effect of inhibiting the synthesis … in words” value in experiment [1] is “have an effect of inhibiting the synthesis of a cholesteryl ester in macrophages”. For the same compound, the “imipenem activity-potentiating effect” value in experiment [2] is “do not potentiate”.
On to `CC(OCc1ccccc1)[C@@H]1NC(=O)[C@@H](NC(=O)OC(C)(C)C)Cc2cc(I)c(O)c(c2)Oc2c(Br)cc(cc2Br)C[C@@H](C(=O)O)NC1=O` (some centres unmarked) [Compound (9)], for which the IC50 in experiment [1] (setting [3]) was > 10 µg/mL. In addition, in experiment [2], the “MRSA (mm) [10 μg/6 mm disc]” value was found to be 17 mm and the “imipenem activity-potentiating effect” value is recorded as “potentiate”.
On to `CC(OCc1ccccc1)[C@@H]1NC(=O)[C@@H](N)Cc2cc(I)c(O)c(c2)Oc2c(Br)cc(cc2Br)C[C@@H](C(=O)O)NC1=O` (some centres unmarked) [Compound (11)], for which the IC50 in experiment [1] (setting [5]) is > 10 µg/mL. Also, in experiment [2], the “MRSA (mm) [10 μg/6 mm disc]” value is given as 12 mm and the “imipenem activity-potentiating effect” value was “potentiate”.
Take `COC(=O)[C@@H]1Cc2cc(Br)c(c(Br)c2)Oc2cc(cc(I)c2O)C[C@H](NC(=O)OC(C)(C)C)C(=O)N[C@@H](C(C)O)C(=O)N1` (some centres unmarked) [Compound (12), N-Boc-dibromo-iodo-eurypamide B methyl ester]: the IC50 in experiment [1] (setting [3]) was > 10 µg/mL. In experiment [2], the “MRSA (mm) [10 μg/6 mm disc]” value came to 9 mm and the “imipenem activity-potentiating effect” value is reported as “potentiate”.
As to `C[C@@H](O)[C@@H]1NC(=O)[C@@H](N)Cc2ccc(O)c(c2)Oc2ccc(cc2)C[C@@H](C(=O)O)NC1=O` [Eurypamide B, reference compound], the “Macrophage [IC50 μg/mL]” value in experiment [1] (setting [7]) is reported as “— (The symbol “-” in the column of macrophage in Table 1 means that the compound did not exhibit inhibition in its amount of 10 μg/mL)”.
On the same count and under the same terms, next, Eurypamide A [reference compound]: “— (The symbol “-” in the column of macrophage in Table 1 means that the compound did not exhibit inhibition in its amount of 10 μg/mL)”.
Same read-out and setting: the value for Eurypamide A′ [reference compound] was “— (The symbol “-” in the column of macrophage in Table 1 means that the compound did not exhibit inhibition in its amount of 10 μg/mL)”.
Same read-out and setting: next, Eurypamide D [reference compound]: “— (The symbol “-” in the column of macrophage in Table 1 means that the compound did not exhibit inhibition in its amount of 10 μg/mL)”.
